Results on two molecules are retold here after patent US20220313873A1, “COLORED BIOLOGIC WOUND TREATMENT PROVIDING HEALING PROGRESS MONITORING” (KERECIS HF, priority 2021, published 2022).

Structures are written as SMILES.

One data set has as its system cells. Kind of data set: Preliminary cytotoxicity tests. The following applies: preliminary tests by the inventors.
Data set [1] can be described thus: Stability of coloring agents in decellularization (Decell) solution. It is filed as physicochemical. The following applies: 0.5 mL of 1% w/v color solution in 50 mL Decell solution. How it is done:
A first set of experiments were conducted to determine the stability of various coloring agents within a decellularization solution (termed herein as “Decell solution”) used in the processing/manufacturing of Kerecis™ fish-skin-derived cellular scaffold products, which is made from the minimally processed skin of wild-caught Atlantic cod, as described in U.S. Pat. No. 8,613,957.
The Decell solution was prepared in accordance with EBL M222. 50 mL of the Decell solution was aliquoted into each of 7 separate plastic tubes securable with a respective lid. A first tube included only the Decell solution, acting as a control. A 0.5 mL aliquot of each of the 6 prepared color solutions was separately added to a corresponding tube containing 50 mL of Decell solution. Any reaction or visible change of the mixture was monitored over time.
The solutions in respective tubes with the respective coloring agents were monitored and documented by photographs at the start of the experiment, after 30 minutes, and after 24 hours of incubation.

On to `CN(C)c1ccc(C(=C2C=CC(=[N+](C)C)C=C2)c2ccc(N(C)C)cc2)cc1` [GV, gentian violet], for which, in the data set on cells, the cytotoxicity entry was “did not cause any cytotoxicity concern”.
Consider `CN(C)c1ccc2nc3ccc(N(C)C)cc3[s+]c2c1.[Cl-]` [Methylene Blue, methylene blue], for which the “color of the Decell solution” value in data set [1] (after 24 hours) was “had all turned white or nearly white except the Decell solution with the added Methylene Blue”. For the same molecule, the “fading of color in Decell solution” value in data set [1] (first 20 minutes) is “notable exception”. For the same molecule, in the data set with cells, the cytotoxicity result was “did not cause any cytotoxicity concern”.
